Reference: the OligoGym collection
HELM strings list units from the 5' end as sugar, base in round brackets, then linkage (d deoxyribose, r ribose, m 2'-O-methyl, p phosphodiester). Strings are as the collection lists them; they lack the last nucleoside at the 3' end of the tested compound. [moe] = 2'-O-(2-methoxyethyl) (MOE); [sp] = phosphorothioate linkage; [m5C] = 5-methylcytosine

Biological target: UBE3A-ATS
Test: mouse, dose not given
Details: ASO

Substance | 3 h FOB score
RNA1{[moe](T)[sp].[moe](G)p.[moe]([m5C])p.[moe](A)p.[moe](T)p.[moe](A)[sp].d([m5C])[sp].d([m5C])[sp].d([m5C])[sp].d(A)[sp].d(G)[sp].d(G)[sp].d(G)[sp].d(T)[sp].[moe](A)p.[moe](G)[sp].[moe](G)}$$$$ (last 3' nucleoside missing) | 2 score 0-7
RNA1{[moe](T)[sp].[moe](G)p.[moe]([m5C])p.[moe](A)p.[moe](T)p.[moe](A)p.d([m5C])[sp].d([m5C])[sp].d([m5C])[sp].d(A)[sp].d(G)[sp].d(G)[sp].d(G)[sp].d(T)[sp].d(A)[sp].d(G)[sp].[moe](G)p.[moe](A)[sp].[moe](T)}$$$$ (last 3' nucleoside missing) | 4 score 0-7
RNA1{[moe](T)[sp].[moe](G)p.[moe]([m5C])p.[moe](A)p.[moe](T)p.d(A)[sp].d(A)[sp].d(A)[sp].d(G)[sp].d([m5C])[sp].d([m5C])[sp].d(A)[sp].d(G)[sp].d(G)[sp].d([m5C])[sp].[moe]([m5C])p.[moe](A)p.[moe](G)[sp].[moe](G)}$$$$ (last 3' nucleoside missing) | 2.2 score 0-7
RNA1{[moe](T)[sp].[moe](G)p.[moe]([m5C])p.[moe](A)p.[moe](T)p.d(A)[sp].d([m5C])[sp].d([m5C])[sp].d([m5C])[sp].d(A)[sp].d(G)[sp].d(G)[sp].d(G)[sp].d(T)[sp].d(A)[sp].[moe](G)p.[moe](G)p.[moe](A)[sp].[moe](T)}$$$$ (last 3' nucleoside missing) | 2 score 0-7
RNA1{[moe](T)[sp].[moe](G)p.[moe]([m5C])p.[moe](A)p.[moe](T)p.d(G)[sp].d(T)[sp].d(G)[sp].d(G)[sp].d(G)[sp].d([m5C])[sp].d([m5C])[sp].d(T)[sp].d([m5C])[sp].d(T)[sp].[moe](A)p.[moe](T)p.[moe](T)[sp].[moe](A)}$$$$ (last 3' nucleoside missing) | 4 score 0-7
RNA1{[moe](T)[sp].[moe](G)p.[moe]([m5C])p.[moe](A)p.d(T)[sp].d(A)[sp].d([m5C])[sp].d([m5C])[sp].d([m5C])[sp].d(A)[sp].d(G)[sp].d(G)[sp].d(G)[sp].d(T)[sp].[moe](A)p.[moe](G)p.[moe](G)p.[moe](A)[sp].[moe](T)}$$$$ (last 3' nucleoside missing) | 1 score 0-7
RNA1{[moe](T)[sp].[moe](G)p.[moe]([m5C])p.[moe](T)[sp].d(T)[sp].d([m5C])[sp].d(A)[sp].d([m5C])[sp].d([m5C])[sp].d(A)[sp].d(T)[sp].d(T)[sp].[moe](T)p.[moe](T)p.[moe](G)p.[moe](A)[sp].[moe]([m5C])}$$$$ (last 3' nucleoside missing) | 0 score 0-7
RNA1{[moe](T)[sp].[moe](G)p.[moe]([m5C])p.[moe](T)[sp].d([m5C])[sp].d(A)[sp].d(G)[sp].d(T)[sp].d(T)[sp].d(A)[sp].d(G)[sp].d(G)[sp].[moe](T)p.[moe](T)p.[moe](A)p.[moe](G)[sp].[moe](T)}$$$$ (last 3' nucleoside missing) | 7 score 0-7
RNA1{[moe](T)[sp].[moe](G)p.[moe]([m5C])p.[moe](T)p.[moe](G)p.[moe](A)p.d(T)[sp].d([m5C])[sp].d(A)[sp].d([m5C])[sp].d(A)[sp].d(T)[sp].d(T)[sp].d(A)[sp].d([m5C])[sp].d([m5C])[sp].[moe]([m5C])p.[moe](A)[sp].[moe](T)}$$$$ (last 3' nucleoside missing) | 1 score 0-7
RNA1{[moe](T)[sp].[moe](G)p.[moe]([m5C])p.[moe](T)p.[moe](G)p.d(A)[sp].d(T)[sp].d([m5C])[sp].d(A)[sp].d([m5C])[sp].d(A)[sp].d(T)[sp].d(T)[sp].d(A)[sp].d([m5C])[sp].[moe]([m5C])p.[moe]([m5C])p.[moe](A)[sp].[moe](T)}$$$$ (last 3' nucleoside missing) | 0 score 0-7
RNA1{[moe](T)[sp].[moe](G)p.[moe]([m5C])p.[moe](T)p.[moe](T)p.[moe]([m5C])p.d(A)[sp].d([m5C])[sp].d([m5C])[sp].d(A)[sp].d(T)[sp].d(T)[sp].d(T)[sp].d(T)[sp].d(G)[sp].d(A)[sp].[moe]([m5C])p.[moe]([m5C])[sp].[moe](T)}$$$$ (last 3' nucleoside missing) | 0 score 0-7
RNA1{[moe](T)[sp].[moe](G)p.[moe]([m5C])p.[moe](T)p.[moe](T)p.d([m5C])[sp].d(A)[sp].d([m5C])[sp].d([m5C])[sp].d(A)[sp].d(T)[sp].d(T)[sp].d(T)[sp].d(T)[sp].d(G)[sp].[moe](A)p.[moe]([m5C])p.[moe]([m5C])[sp].[moe](T)}$$$$ (last 3' nucleoside missing) | 1 score 0-7
RNA1{[moe](T)[sp].[moe](G)p.[moe]([m5C])p.[moe](T)p.[moe]([m5C])[sp].d(A)[sp].d(G)[sp].d(T)[sp].d(T)[sp].d(A)[sp].d(G)[sp].d(G)[sp].d(T)[sp].[moe](T)p.[moe](A)p.[moe](G)[sp].[moe](T)}$$$$ (last 3' nucleoside missing) | 6.3 score 0-7
RNA1{[moe](T)[sp].[moe](G)p.[moe]([m5C])p.[moe](T)p.[moe]([m5C])p.[moe](A)[sp].d(G)[sp].d(T)[sp].d(T)[sp].d(A)[sp].d(G)[sp].d(G)[sp].d(T)[sp].d(T)[sp].[moe](A)p.[moe](G)[sp].[moe](T)}$$$$ (last 3' nucleoside missing) | 5.7 score 0-7
RNA1{[moe](T)[sp].[moe](G)p.[moe]([m5C])p.[moe](T)p.[moe]([m5C])p.[moe](A)p.d(G)[sp].d(T)[sp].d(T)[sp].d(A)[sp].d(G)[sp].d(G)[sp].d(T)[sp].d(T)[sp].d(A)[sp].d(G)[sp].[moe](T)p.[moe](G)[sp].[moe]([m5C])}$$$$ (last 3' nucleoside missing) | 4 score 0-7
RNA1{[moe](T)[sp].[moe](G)p.[moe]([m5C])p.[moe](T)p.[moe]([m5C])p.d(A)[sp].d(G)[sp].d(T)[sp].d(T)[sp].d(A)[sp].d(G)[sp].d(G)[sp].d(T)[sp].d(T)[sp].d(A)[sp].[moe](G)p.[moe](T)p.[moe](G)[sp].[moe]([m5C])}$$$$ (last 3' nucleoside missing) | 4.3 score 0-7
RNA1{[moe](T)[sp].[moe](G)p.[moe]([m5C])p.[moe](T)p.d(G)[sp].d(A)[sp].d(T)[sp].d([m5C])[sp].d(A)[sp].d([m5C])[sp].d(A)[sp].d(T)[sp].d(T)[sp].d(A)[sp].[moe]([m5C])p.[moe]([m5C])p.[moe]([m5C])p.[moe](A)[sp].[moe](T)}$$$$ (last 3' nucleoside missing) | 0 score 0-7
RNA1{[moe](T)[sp].[moe](G)p.[moe]([m5C])p.[moe](T)p.d(T)[sp].d([m5C])[sp].d(A)[sp].d([m5C])[sp].d([m5C])[sp].d(A)[sp].d(T)[sp].d(T)[sp].d(T)[sp].d(T)[sp].[moe](G)p.[moe](A)p.[moe]([m5C])p.[moe]([m5C])[sp].[moe](T)}$$$$ (last 3' nucleoside missing) | 0 score 0-7
RNA1{[moe](T)[sp].[moe](G)p.[moe]([m5C])p.[moe](T)p.d([m5C])[sp].d(A)[sp].d(G)[sp].d(T)[sp].d(T)[sp].d(A)[sp].d(G)[sp].d(G)[sp].d(T)[sp].d(T)[sp].[moe](A)p.[moe](G)p.[moe](T)p.[moe](G)[sp].[moe]([m5C])}$$$$ (last 3' nucleoside missing) | 4 score 0-7
RNA1{[moe](T)[sp].[moe](G)p.[moe]([m5C])p.[moe]([m5C])p.[moe](T)p.d(T)[sp].d(T)[sp].d([m5C])[sp].d(T)[sp].d(A)[sp].d(T)[sp].d(T)[sp].d(T)[sp].d([m5C])[sp].d(A)[sp].[moe](G)p.[moe](A)p.[moe]([m5C])[sp].[moe]([m5C])}$$$$ (last 3' nucleoside missing) | 2.7 score 0-7
RNA1{[moe](T)[sp].[moe](T)p.[moe](A)p.[moe](A)p.[moe]([m5C])p.d(T)[sp].d(G)[sp].d([m5C])[sp].d(T)[sp].d(T)[sp].d([m5C])[sp].d(A)[sp].d([m5C])[sp].d([m5C])[sp].d(A)[sp].[moe](T)p.[moe](T)p.[moe](T)[sp].[moe](T)}$$$$ (last 3' nucleoside missing) | 1 score 0-7
RNA1{[moe](T)[sp].[moe](T)p.[moe](A)p.[moe](G)p.[moe](G)p.[moe](T)p.d([m5C])[sp].d(A)[sp].d(A)[sp].d([m5C])[sp].d([m5C])[sp].d(A)[sp].d(A)[sp].d(T)[sp].d(T)[sp].d(T)[sp].[moe](G)p.[moe]([m5C])[sp].[moe](T)}$$$$ (last 3' nucleoside missing) | 0 score 0-7
RNA1{[moe](T)[sp].[moe](T)p.[moe](A)p.[moe](G)p.[moe](G)p.d(T)[sp].d(T)[sp].d(A)[sp].d(G)[sp].d(T)[sp].d(G)[sp].d([m5C])[sp].d(A)[sp].d([m5C])[sp].d(A)[sp].[moe](G)p.[moe](A)p.[moe](T)[sp].[moe](A)}$$$$ (last 3' nucleoside missing) | 6 score 0-7
RNA1{[moe](T)[sp].[moe](T)p.[moe](A)p.[moe](G)p.[moe](G)p.d(T)[sp].d([m5C])[sp].d(A)[sp].d(A)[sp].d([m5C])[sp].d([m5C])[sp].d(A)[sp].d(A)[sp].d(T)[sp].d(T)[sp].[moe](T)p.[moe](G)p.[moe]([m5C])[sp].[moe](T)}$$$$ (last 3' nucleoside missing) | 0 score 0-7
RNA1{[moe](T)[sp].[moe](T)p.[moe](A)p.[moe](G)p.[moe](G)p.d([m5C])[sp].d(A)[sp].d(A)[sp].d(T)[sp].d(G)[sp].d(G)[sp].d(A)[sp].d([m5C])[sp].d(T)[sp].d(T)[sp].[moe](A)p.[moe](G)p.[moe](T)[sp].[moe](A)}$$$$ (last 3' nucleoside missing) | 1 score 0-7
RNA1{[moe](T)[sp].[moe](T)p.[moe](A)p.[moe](G)p.[moe](T)p.d(A)[sp].d(T)[sp].d(G)[sp].d(T)[sp].d([m5C])[sp].d(G)[sp].d(A)[sp].d(G)[sp].d(A)[sp].d(A)[sp].[moe]([m5C])p.[moe](T)p.[moe]([m5C])[sp].[moe](A)}$$$$ (last 3' nucleoside missing) | 5.5 score 0-7
RNA1{[moe](T)[sp].[moe](T)p.[moe](A)p.[moe](G)p.[moe](T)p.d(G)[sp].d(T)[sp].d([m5C])[sp].d(A)[sp].d(T)[sp].d(A)[sp].d(T)[sp].d(G)[sp].d(T)[sp].d(A)[sp].[moe](G)p.[moe]([m5C])p.[moe](A)[sp].[moe](A)}$$$$ (last 3' nucleoside missing) | 1 score 0-7
